Data taken from patent US20240189297A1 (priority 2021, published 2024).
Where two headings read alike, the source gives them in different places.

Columns and labels:
[1] = free base (non-protonated) nicotine; cited from earlier work

**Q.** For CN1CCCC1c1cccnc1 (stereo not drawn) [nicotine, 3-(1-methyl-2-pyrrolidinyl) pyridine], which pKa value [1] is on record?
**A.** about 8

**Q.** And the “partition coefficient (oil phase : aqueous phase)” value (Samples 1-4: MCT oil vs DI water, basified DI water pH 7.4, artificial saliva pH 6.8, acidified DI water pH 2)?
**A.** greater than 1

**Q.** And the “partition coefficient (oil phase : aqueous phase)” value (Samples 5-8: MCT, triacetin or triolein oil vs 1M acetic acid pH adjuster, pH 2)?
**A.** less than 1
